# Results reported in patent US5783557A, “THF-γ2 analogs and pharmaceutical compositions comprising them” (Yeda Research and Development Company Ltd at Weizmann …, priority 1993, dated 1998).
# No end group written: not given here. *: point of attachment. iodo = iodine substituent on Tyr (iodo-Tyr), I*
# Assays:
# mouse spleen cells = assay: ConA-induced IL-2 production; type: cell-based; set-up: key: +++: strong enhancement, as THF-γ2; ++ and +: medium and weak enhancement, lower than THF-γ2; ++ and +: medium and weak enhancement, lower than THF-γ2; --no activity; details: graded against THF-γ2; Example 1, section 1.1
# Experimental: 1.1. ConA-Induced IL-2 Production
# In this bioassay, the effect of THF-γ2 and its analogs in enhancing the secretion of ConA-induced IL-2 from murine spleen cells is determined.
# 1.1.1. Preparation of cells and preincubation with THF-γ2. Pooled spleen cells (10^7 cell/ml) from five female C3B6F1 (C3HeB/FeJ×C57BL/6J) mice (obtained from Jackson Labs, U.S.A.) aged 6-8 weeks are seeded in 24-well plates (Costar, Cambridge, Mass, U.S.A.). The cells are prepared in medium RPMI-1640 supplemented with penicillin (100 u/ml), streptomycin (100 μg/ml), 2 mM glutamine, 50 μM 2-mercaptoethanol (2-ME) and 20 mM HEPES. THF-γ2 in various concentrations in phosphate buffered saline (PBS), is added in 20 μl aliquots, while control cultures receive 20 μl PBS. The cell cultures are incubated for 20 h in a humidified incubator of 5% CO2 /95% air and 37° C.
# 1.1.2. Induction of IL-2. ConA (Concanavalin A, ConA, 3×crystalline, Bio-Makor, Ness-Ziona, Israel) is added to the wells in 1 ml fresh medium (as in 1.1.1 above) at suboptimal concentration (1-2.5 μ/ml). […]
# 1.1.3. […] After incubation of 48 h at 37° C./5% CO2, the proliferation is assessed by the MTT colorimetric assay (T. Mosmann, J. Immunol. Methods 65: 55-63, 1983). Results are expressed in units/ml calculated using a standard murine IL-2 preparation (according to S. Gillis et al., J. Immunol. 120: 2027, 1978).
# [1] = tested on: GM-CFC from mouse bone marrow; assay: Effect on GM-CFC from mouse bone marrow; type: cell-based; set-up: key: +++: strong enhancement, as THF-γ2; ++ and +: medium and weak enhancement, lower than THF-γ2; ++ and +: medium and weak enhancement, lower than THF-γ2; --no activity; details: graded against THF-γ2; Example 1, section 1.2
# Experimental: 1.2. Effect of THF-γ2 on GM-CFC From Mouse Bone Marrow. In this second bioassay, the effect of THF-γ2 and its analogs in the enhancement of the number of colonies of GM-CFC in the presence of growth factors is determined. 1.2.1. […] Tibia and femur were removed from BALB/c female mice (6-8 weeks old). The tip of the bone was cut and DMEM with 2.5% FCS was flushed into the bone using a 1 ml syringe with a 26 G needle. This procedure was repeated twice, the cells were then washed in medium and counted in the presence of trypan blue. 1.2.2 Preincubation with THF-γ2. Bone marrow cells suspension was prepared in DMEM with 2.5% FCS at a concentration of 15×10^6 /3.0 ml. THFγ2 diluted in DMEM was added in 20 μl aliquots, control cells received 20 μl DMEM. Cell suspensions in conical tissue culture tubes were incubated at 37° C./8% CO2 for 1 h. Cells were then collected, washed and counted in trypan blue. Cell suspensions were adjusted at 1×10^6 /ml. 1.2.3. GM-CFC assay. Bone marrow cells (4×10^5) are suspended in methylcellulose (0.8%), FCS (20%) and conditioned medium of 14FIL3 CB6 cell line (5%) in a total volume of 4 ml of DMEM. After vigorous mixing, the suspension is seeded into 30 mm diameter plates with the aid of a 3.0 ml syringe (21G needle, in triplicate). […] Colonies are counted using an inverted microscope at low magnification.
# [2] = tested on: murine cytomegalovirus (MCMV); details: MCMV-infected mice; cited from earlier work
# [3] = tested on: patients with reduced circulating T cells; details: 4 ng/kg/day i.m., 18 injections in 3 weeks; cited from earlier work
# [4] = tested on: viral infections of the herpes group; details: four patients, same protocol as the pilot study; cited from earlier work
Substance,IL-2: Enhancement of ConA induced IL2 production in mouse spleen cells (mouse spleen cells),GM-CFC: Enhancement of the number of GMCFC from mouse bone marrow [1],interferon synthesis and NK cytotoxicity [2],side effects [3],side effects [4]
Iodo-Tyr-Leu-Glu-Asp-Gly-Pro-Lys-Phe-Leu (Y(iodo)LEDGPKFL) [iodo-Y^-1 -THF-γ2],++,-,,,
"LEDGPKFL [THF-γ2, Leu-Glu-Asp-Gly-Pro-Lys-Phe-Leu]",,,did not affect,No side effects attributable to synthetic THF-γ2 were observed,no deleterious side effects were documented
